According to patent US20090047369A1, “Composition Comprising 4-Carbon Dicarboxlic Acids for Improvement of Memory Function” (Eubioslab Co., Ltd, priority 2006, published 2009):

How the values were obtained:
cerebral cortex = conditions: normal persons; Saarma J. et al. 1975; cited from earlier work
ischemia-induced brain = conditions: administered after hypoxia; Ann. Thorac. Surg. 1994; cited from earlier work
Sprague Dawley rats [1] = assay: Morris water maze test (escape time to hidden platform); assay type: in vivo
Procedure: In the Morris water maze test, each of the test animals was given four swimming trials per session per day for 4-5 days. When the escape latency of the test animal, that is, the time for the test animal to reach a hidden platform 2 cm below the surface of water, was shortened to about 10±2 seconds during the repeat of the learning sessions, a probe test was performed after 24 hours one time for 60 seconds without the platform.
In the present invention, the effect of formulated drugs on the improvement of learning and memory for spatial recognition of a normal test animal group (Sprague Dawley rats) was tested by administering the drugs to the test animals orally or through drinking water for 2, 3 or 4 weeks and performing a Morris water maze test at 2, 3 or 4 weeks after the drug administration.
(§1) In the Morris water maze test, each of the test animals was given four swimming trials per session per day for 4-5 days. When the escape latency of the test animal, that is, the time for the test animal to reach a hidden platform 2 cm below the surface of water, became shorter than 10±2 seconds during the repeat of the learning sessions, a probe test was performed after 24 hours one time for 60 seconds without the platform. The probe test was performed by removing the platform from the swimming pool and observing the swimming behavior of the test animals. In the probe test, as measures of spatial working memory, the retention time and movement distance of the test animals in the same area of a quadrant region including the position in which the platform was present during the first learning period were analyzed and compared with those of the control group.
Starting from 4 weeks of the administration, a Morris water maze test was performed at a given time point daily four times per day for 4 days to analyze the effect of each composition on the improvement of learning and memory for spatial recognition function of the test animals. As the test results are shown in FIG. 1(a) showing the escape time of each group.

Sprague Dawley rats [2] = assay: probe test after Morris water maze learning (platform removed); assay type: in vivo
Procedure: as §1
At 5 days, that is, after 24 hours when the escape time for the learned test animals to reach the platform became an average of 10±2 seconds, the platform was removed and a probe test was performed one time. The test results are shown in FIG. 1(b) to analyze an improvement in learning and memory for spatial recognition functions.

[3] = administered for 1 week; Jpn J Psychiatry Neurol 1991; cited from earlier work
[4] = fumaric acid 100 mg/kg with Tween80 100 mg/kg (FA100Tw100 group), drinking water 4 weeks, vs Tw50 control

O=C(O)CCC(=O)O [SS, sodium succinate]
excitability of the cerebral cortex (cerebral cortex): stabilizes the excitability of the cerebral cortex

O=CCCC(=O)O [SSA, succinic semialdehyde, reference compound]
excitability of the cerebral cortex (cerebral cortex): enhances the excitability of the cerebral cortex

O=C(O)/C=C/C(=O)O [fumaric acid]
nerve protective effect (ischemia-induced brain): nerve protective effects
improvement of learning (escape time) (Sprague Dawley rats [1]; [4]): significant (p<0.05) effect on the improvement of both learning and working memory
effect on the improvement of learning and memory (Sprague Dawley rats [1]; fumaric acid given with Tween80 (FA50Tw50, FA100Tw100 groups) through drinking water 4 weeks, vs Tw50 control): dose-dependent effect on the improvement of learning and memory
improvement of working memory (Sprague Dawley rats [2]; [4]): significant (p<0.05) effect on the improvement of both learning and working memory

CN(C)CCCN1c2ccccc2CCc2ccccc21 [imipramine]
antidepressant effect [3]: significant antidepressant effect

O=C(O)CCC(=O)O [succinic acid]
learning ability in the Morris water maze test (Sprague Dawley rats [1]; succinic acid 100 mg/kg with Span80 200 mg/kg (SA100Sp200 group), drinking water 3 weeks, session 4, P<0.001 vs DW control, Mann Whitney U test): significant increase in learning ability
working memory in the probe test (Sprague Dawley rats [2]; succinic acid 100 mg/kg with Span80 200 mg/kg (SA100Sp200 group), drinking water 3 weeks, vs DW control): insignificant (P=0.089) improvement in working memory
